Measurements: the NIST ThermoML archive (doi:10.1021/je2002539)
± gives the expanded uncertainty stated by the source.

Assay: refractive index (Na D-line) (dimensionless)
Conditions: 298.15 K; 101.33 kPa; Liquid; Standard Abbe refractometry

| refractive index | Structure (SMILES) |
| --- | --- |
| 1.43436 ± 0.00033 | CCCCCCCCCCO [decan-1-ol] |
| 1.43084 ± 0.00033 | CCCCCCCCCO [nonan-1-ol] |
| 1.44058 ± 0.00033 | CCCCCCCCCCCCO [dodecan-1-ol] |

The next lines start with the molecule.

| Structure (SMILES) | refractive index |
| --- | --- |
| O [water] | 1.33248 ± 0.00031 |
| CCCCCCO [hexan-1-ol] | 1.4158 ± 0.00033 |
| CCCO [propan-1-ol] | 1.38305 ± 0.00033 |
| CCCCCCCCO [octan-1-ol] | 1.42695 ± 0.00033 |
| CCCCCO [pentan-1-ol] | 1.40703 ± 0.00033 |
